{"source": "paper PMC7993375", "about": "“Discovery of novel quinoline-based analogues of combretastatin A-4 as tubulin polymerisation inhibitors with apoptosis inducing activity and potent anticancer effect” (Journal of Enzyme Inhibition and Medicinal Chemistry, 2021)", "key": {"MCF-7 cells [1]": {"tested_on": "MCF-7 cells", "experiment": "Cell cycle analysis (PI, flow cytometry)", "type": "cell-based, human", "details": "for percentage of cells in G0/G1 phase: control 57.3%", "method": "MCF-7 cells were seeded at a density of 1 × 10^5 cells/well in 6-well plates and treated with CA-4 (50 nM) and compound 12c (50 and 250 nM) for 24, 48 and 72 h. The cells were collected by trypsinisation and centrifuged at 800×g for 15 min. Cells were washed twice with ice-cold PBS and fixed in ice-cold 70% ethanol overnight at −20 °C. Fixed cells were centrifuged at 800×g for 15 min and stained with 50 µg/mL of PI, containing 50 µg/mL of DNase-free RNase A, at 37 °C for 30 min. The DNA content of cells (10,000 cells/experimental group) was analysed by flow cytometer at 488 nm using a FACSCalibur flow cytometer (BD Biosciences, San Jose, CA) and all data were recorded and analysed using the CellQuest Software (Becton-Dickinson)."}, "MCF-7 cells [2]": {"tested_on": "MCF-7 cells", "experiment": "Intracellular ROS production (H2-DCFDA)", "type": "cell-based, human", "details": "24 h, untreated 1.0%", "method": "Mitochondrial membrane potential (Δψmt) was measured by flow cytometry with DiOC2(3) staining and additional labelling with an annexin V conjugate. After treatment with compound 12c (50 and 250 nM) and CA-4 (50 nM), cells were stained with DiOC2(3) dye for 30 min in the incubator, then harvested and washed with PBS. DiOC2(3)-stained cells were resuspended with 1X annexin binding buffer, followed by addition of annexin V conjugate and incubated at 37 °C for 15 min. The data from the flow cytometry were analysed by Cell Quest software. Production of intracellular reactive oxygen species (ROS) was measured using 2,7–dichlorofluorescin diacetate (H2-DCFDA) dye. MCF-7 cells were seeded and treated either with vehicle (0.1% DMSO) or with compound 12c (50 and 250 nM) or CA-4 (50 nM) for 6, 12 and 24 h. H2O2 was used as a positive control. The amount of ROS generated was estimated after 2 h of selected compound treatment. The cells were collected by centrifugation and washed twice with PBS. Cells were then incubated with DCFDA dye (25 µM) in dark at 37 °C for 1 h. Fluorescence spectra (510 − 600 nm) were monitored using an excitation wavelength of 488 nm[53]^,[54]."}, "MCF-7 cells [3]": {"tested_on": "MCF-7 cells", "experiment": "Annexin V/PI apoptotic assay", "type": "cell-based, human", "details": "for percentage of Annexin V-staining positive cells: 48 h, untreated 1%; for percentage of early and late apoptotic cells: 72 h, untreated 2%", "method": "Apoptotic cell death was detected by flow cytometry using Annexin V and propidium iodide (PI). […] Cells were then harvested and prepared for flow cytometric analysis. Cells were washed in 1X binding buffer (20X binding buffer: 0.1 M HEPES, pH 7.4; 1.4 M NaCl; 25 mM CaCl2 diluted in dH2O) and incubated in the dark for 30 min on ice in Annexin V-containing binding buffer [1:100]. Cells were then washed once in binding buffer and then re-suspended in PI-containing binding buffer [1:1000]. Samples were analysed immediately using the BD accuri flow cytometer and prism software for analysis the data. Four populations are produced during the assay Annexin V and PI negative (Q4, healthy cells), Annexin V positive and PI negative (Q3, early apoptosis), Annexin V and PI positive (Q2, late apoptosis) and Annexin V negative and PI positive (Q1, necrosis)."}, "MCF-7": {"tested_on": "MCF-7", "experiment": "MTT cell viability assay, MCF-7 breast adenocarcinoma cells", "type": "cell-based", "details": "Homo sapiens", "method": "(§1) The four human tumour cell lines MCF-7, HCT-116, HL-60 and HeLa used in this study were obtained from the VACSERA (Giza, Egypt) cell culture unit that were originally acquired from ATCC (Manassas, VA, USA). All the human tumour cell lines were cultured in Dulbecco’s Modified Eagle’s Medium (DMEM) with 10% foetal bovine serum, 2 mM L-glutamine and 100 µg/mL penicillin/streptomycin. Cells were maintained at 37 °C in 5% CO2 in a humidified incubator. All cells were sub-cultured 3 times/week by trypsinisation using TrypLE Express (1X).\n(§2) The quinoline compounds were evaluated for antiproliferative effect using the MTT viability assay of four cancer cell lines (MCF-7, HCT-116, HL-60 and HeLa) and normal breast cells MCF-10A to calculate the relative IC50 values for each compound. Cells were seeded in triplicate in 96-well plates at a density of 10 × 10^3 cells/ml in a total volume of 200 µl per well. 0.1% of DMSO was used as a vehicle control. Following, the cells were treated with 2 µl test compound (from stock solutions in ethanol) to furnish the concentration range of study, 1 nM to 50 µM, and re-incubated for a further 72 h. The culture medium was then removed, and the cells washed with 100 µL phosphate buffered saline (PBS) and 50 µL MTT added, to reach a final concentration of 1 mg/mL. Cells were incubated for 2 h in darkness at 37 °C. Solubilisation was begun through the addition of […] DMSO, and the cells maintained at room temperature in darkness for 20 min to ensure thorough colour diffusion before reading the absorbance. Plates were incubated for 72 h at 37 °C + 5% CO2. The MTT (5 mg/mL in PBS) was added and incubated for another 4 h, and the optical density was detected with a microplate reader at 570 nm. Results were expressed as percentage viability relative to vehicle control (100%). Dose response curves were plotted and IC50 values (concentration of drug resulting in 50% reduction in cell survival) were obtained using the commercial software package Prism (GraphPad Software, Inc., La Jolla, CA, USA). All the experiments were repeated in at least three independent experiments."}, "MCF-10A": {"tested_on": "MCF-10A", "experiment": "MTT cell viability assay, normal epithelial breast MCF-10A cells", "type": "cell-based", "details": "Homo sapiens, 72 h", "method": "as §2, with “Dose response curves were plotted and IC50 values (concentration of drug resulting in 50% reduction in cell survival) were obtained using the commercial software package Prism (GraphPad Software, Inc., La Jolla, CA, USA). All the experiments were repeated in at least three independent experiments.” left out"}, "HCT-116": {"tested_on": "HCT-116", "experiment": "MTT cell viability assay, HCT-116 colorectal carcinoma cells", "type": "cell-based", "details": "Homo sapiens, 72 h", "method": "as §1, §2"}, "HeLa": {"tested_on": "HeLa", "experiment": "MTT cell viability assay, HeLa cervical adenocarcinoma cells", "type": "cell-based", "details": "Homo sapiens, 72 h", "method": "as §1, §2"}, "HL-60": {"tested_on": "HL-60", "experiment": "MTT cell viability assay, HL-60 leukaemia cells", "type": "cell-based", "details": "Homo sapiens", "method": "as §1, §2"}, "[4]": {"details": "MCF7, 72 h, read-out: IC50 value, MCF-7"}, "[5]": {"details": "72 h, read-out: IC50 value, HL-60"}}, "note": "Read-outs that look alike come from different tables or passages of the source."}
{"smiles": "COc1ccc(/C=C\\c2cc(OC)c(OC)c(OC)c2)cc1O", "note": "[CA-4, Combretastatin A-4]", "values": [{"measurement": "apoptosis, proportion of cells in sub-G1 phase", "setting": "MCF-7 cells [1]; 50 nM, 24 h", "result": 23.5, "unit": "%"}, {"measurement": "percentage of cells in G2/M phase", "setting": "MCF-7 cells [1]; 50 nM, 24 h", "result": 40.3, "unit": "%"}, {"measurement": "apoptosis, proportion of cells in sub-G1 phase", "setting": "MCF-7 cells [1]; 50 nM, 48 h", "result": 31.1, "unit": "%"}, {"measurement": "percentage of cells in G2/M phase", "setting": "MCF-7 cells [1]; 50 nM, 48 h, untreated 9.2%", "result": 43.8, "unit": "%"}, {"measurement": "apoptosis, proportion of cells in sub-G1 phase", "setting": "MCF-7 cells [1]; 50 nM, 72 h", "result": 37.4, "unit": "%"}, {"measurement": "percentage of cells in G2/M phase", "setting": "MCF-7 cells [1]; 50 nM, 72 h", "result": 47.7, "unit": "%"}, {"measurement": "levels of ROS in MCF-7 cells", "setting": "MCF-7 cells [2]; 50 nM", "result": 18.3, "unit": "%"}, {"measurement": "percentage of Annexin V-staining positive cells", "setting": "MCF-7 cells [3]; 50 nM", "result": 29, "unit": "%"}, {"measurement": "IC50", "setting": "MCF-7; [4]", "result": "19 ± 4", "unit": "nM"}, {"measurement": "IC50", "setting": "MCF-10A", "result": 6.1, "unit": "µM"}, {"measurement": "IC50", "setting": "HCT-116", "result": "26 ± 1", "unit": "nM"}, {"measurement": "IC50", "setting": "HeLa", "result": "64 ± 4", "unit": "nM"}, {"measurement": "IC50", "setting": "HL-60; [5]", "result": "76 ± 4", "unit": "nM"}]}
{"smiles": "COc1cc(C2=NC(=Cc3cc4ccc(C)cc4nc3OC)C(=O)O2)cc(OC)c1OC", "note": "[Compound 12c, 4-[(2-Methoxy-7-methylquinolin-3-yl)methylene]-2–(3,4,5-trimethoxyphenyl) oxazol-5(4H)-one]", "values": [{"measurement": "percentage of cells in G2/M phase", "setting": "MCF-7 cells [1]; 50 nM, 48 h, untreated 9.2%", "result": 28.4, "unit": "%"}, {"measurement": "percentage of cells in G2/M phase", "setting": "MCF-7 cells [1]; 50 nM, 72 h", "result": 33.0, "unit": "%"}, {"measurement": "percentage of cells in G0/G1 phase", "setting": "MCF-7 cells [1]; 50 nM, 72 h", "result": 40.3, "unit": "%"}, {"measurement": "apoptosis, proportion of cells in sub-G1 phase", "setting": "MCF-7 cells [1]; 250 nM, 24 h, untreated 1.5%", "result": 16.2, "unit": "%"}, {"measurement": "apoptosis, proportion of cells in sub-G1 phase", "setting": "MCF-7 cells [1]; 250 nM, 48 h, untreated 1.5%", "result": 23.4, "unit": "%"}, {"measurement": "percentage of cells in G2/M phase", "setting": "MCF-7 cells [1]; 250 nM, 48 h, untreated 9.2%", "result": 38.3, "unit": "%"}, {"measurement": "percentage of cells in G2/M phase", "setting": "MCF-7 cells [1]; 250 nM, 72 h", "result": 40.8, "unit": "%"}, {"measurement": "percentage of cells in G0/G1 phase", "setting": "MCF-7 cells [1]; 250 nM, 72 h", "result": 29.8, "unit": "%"}, {"measurement": "apoptosis, proportion of cells in sub-G1 phase", "setting": "MCF-7 cells [1]; 250 nM, 72 h, untreated 1.5%", "result": 32.7, "unit": "%"}, {"measurement": "levels of ROS in MCF-7 cells", "setting": "MCF-7 cells [2]; 50 nM", "result": 22.7, "unit": "%"}, {"measurement": "levels of ROS in MCF-7 cells", "setting": "MCF-7 cells [2]; 250 nM", "result": 26.6, "unit": "%"}, {"measurement": "percentage of Annexin V-staining positive cells", "setting": "MCF-7 cells [3]; 250 nM", "result": 21, "unit": "%"}, {"measurement": "percentage of Annexin V-staining positive cells", "setting": "MCF-7 cells [3]; concentration printed as 0 nM", "result": 15, "unit": "%"}, {"measurement": "percentage of early and late apoptotic cells", "setting": "MCF-7 cells [3]; concentration printed as 1 µM", "result": 17.6, "unit": "%"}, {"measurement": "percentage of early and late apoptotic cells", "setting": "MCF-7 cells [3]; concentration printed as 5 µM", "result": 29.3, "unit": "%"}, {"measurement": "IC50", "setting": "MCF-7; [4]", "result": "10 ± 3", "unit": "nM"}, {"measurement": "IC50", "setting": "MCF-7; MCF7, read-out: IC50, MCF-7", "result": 19, "unit": "nM"}, {"measurement": "IC50", "setting": "MCF-10A", "result": "> 50", "unit": "µM"}, {"measurement": "IC50", "setting": "HCT-116", "result": "22 ± 1", "unit": "nM"}, {"measurement": "IC50", "setting": "HeLa", "result": "42 ± 1", "unit": "nM"}, {"measurement": "IC50", "setting": "HL-60; [5]", "result": 19, "unit": "nM"}, {"measurement": "IC50", "setting": "HL-60; read-out: IC50, HL-60", "result": 10, "unit": "nM"}]}
